Laboratory results published in PubChem BioAssay AID2060624 (Molecular Pharmacology Branch, DTP, NCI, 2025).

Tested on: 217524-143-R1-J4-PDC spheroids with HUVEC/MSC, viability
Test: Anticancer human tumor 217524-143-R1-J4-PDC patient-derived pancreatic carcinoma cell line growth inhibition [CLK]
Settings: for IC50: curve of first compound; for viability, T/C: stronger effect = lower value
How it was run: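 Patient-derived tumor cells grown as complex spheroids with HUVEC endothelial cells and mesenchymal stem cells, treated with drug combinations. Concentrations descend in half-log steps from near clinical Cmax, or from 10 microM if Cmax unknown.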
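Further: spheroids exposed to agents for seven days before reading.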
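Wherever viability, T/C is given: 100% = DMSO vehicle control viability.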

For CC(C)CC(NC(=O)C(Cc1ccccc1)NC(=O)c1cnccn1)B(O)O (centres undefined) + CN1CCN(c2cc(C(=O)Nc3cc4cc(-c5cnn(C)c5)ccc4cn3)ccn2)CC1, the IC50 (second compound 0.0316 µM) was 3.03 nM, the IC50 (second compound 0.1 µM) was 2.29 nM and the IC50 (second compound 0.316 µM) was < 0.949 nM. The IC50 (second compound 1 µM) was < 0.949 nM, the IC50 (second compound 3.16 µM) was < 0.949 nM and the IC50 (second compound 10 µM) was < 0.949 nM. For the same molecule, the viability, T/C (second compound 0.0316 µM, first compound 0.000949 µM) was 89.7%, the viability, T/C (second compound 0.0316 µM, first compound 0.003 µM) was 49.9% and the viability, T/C (second compound 0.0316 µM, first compound 0.00949 µM) was 22.4%. For the same molecule, the viability, T/C (second compound 0.0316 µM, first compound 0.03 µM) was 6.55%, the viability, T/C (second compound 0.0316 µM, first compound 0.0949 µM) was 5.49% and the viability, T/C (second compound 0.0316 µM, first compound 0.3 µM) was 2.12%. It also gave a viability, T/C (second compound 0.1 µM, first compound 0.000949 µM) of 58.3%, a viability, T/C (second compound 0.1 µM, first compound 0.003 µM) of 47.5% and a viability, T/C (second compound 0.1 µM, first compound 0.00949 µM) of 14.4%. For the same molecule, the viability, T/C (second compound 0.1 µM, first compound 0.03 µM) was 5.38%, the viability, T/C (second compound 0.1 µM, first compound 0.0949 µM) was 3.86% and the viability, T/C (second compound 0.1 µM, first compound 0.3 µM) was 2.25%. For the same molecule, the viability, T/C (second compound 0.316 µM, first compound 0.000949 µM) was 25%, the viability, T/C (second compound 0.316 µM, first compound 0.003 µM) was 24% and the viability, T/C (second compound 0.316 µM, first compound 0.00949 µM) was 3.44%. The viability, T/C (second compound 0.316 µM, first compound 0.03 µM) was 1.85%, the viability, T/C (second compound 0.316 µM, first compound 0.0949 µM) was 1.33% and the viability, T/C (second compound 0.316 µM, first compound 0.3 µM) was 0.89%. It also gave a viability, T/C (second compound 1 µM, first compound 0.000949 µM) of 1.64%, a viability, T/C (second compound 1 µM, first compound 0.003 µM) of 0.62% and a viability, T/C (second compound 1 µM, first compound 0.00949 µM) of 0.77%. For the same molecule, the viability, T/C (second compound 1 µM, first compound 0.03 µM) was 0.46%, the viability, T/C (second compound 1 µM, first compound 0.0949 µM) was 0.4% and the viability, T/C (second compound 1 µM, first compound 0.3 µM) was 0.42%. For the same molecule, the viability, T/C (second compound 3.16 µM, first compound 0.000949 µM) was 0.67%, the viability, T/C (second compound 3.16 µM, first compound 0.003 µM) was 0.98% and the viability, T/C (second compound 3.16 µM, first compound 0.00949 µM) was 2.38%. It also gave a viability, T/C (second compound 3.16 µM, first compound 0.03 µM) of 1.54%, a viability, T/C (second compound 3.16 µM, first compound 0.0949 µM) of 0.63% and a viability, T/C (second compound 3.16 µM, first compound 0.3 µM) of 0.66%. It also gave a viability, T/C (second compound 10 µM, first compound 0.000949 µM) of 0.3%, a viability, T/C (second compound 10 µM, first compound 0.003 µM) of 0.19% and a viability, T/C (second compound 10 µM, first compound 0.00949 µM) of 0.47%. It also gave a viability, T/C (second compound 10 µM, first compound 0.03 µM) of 0.32%, a viability, T/C (second compound 10 µM, first compound 0.0949 µM) of 0.23% and a viability, T/C (second compound 10 µM, first compound 0.3 µM) of 0.22%.

In the case of O=C(c1cc(Cc2n[nH]c(=O)c3ccccc23)ccc1F)N1CCN(C(=O)C2CC2)CC1 + CN1CCN(c2cc(C(=O)Nc3cc4cc(-c5cnn(C)c5)ccc4cn3)ccn2)CC1, the IC50 (second compound 0.0316 µM) is reported as > 10000 nM, the IC50 (second compound 0.1 µM) is reported as 537 nM and the IC50 (second compound 0.316 µM) is reported as < 31.6 nM. The IC50 (second compound 1 µM) was < 31.6 nM, the IC50 (second compound 3.16 µM) was < 31.6 nM and the IC50 (second compound 10 µM) was < 31.6 nM. The viability, T/C (second compound 0.0316 µM, first compound 0.0316 µM) was 76.5%, the viability, T/C (second compound 0.0316 µM, first compound 0.1 µM) was 91.6% and the viability, T/C (second compound 0.0316 µM, first compound 0.316 µM) was 71.2%. For the same molecule, the viability, T/C (second compound 0.0316 µM, first compound 1 µM) was 90.3%, the viability, T/C (second compound 0.0316 µM, first compound 3.16 µM) was 68.5% and the viability, T/C (second compound 0.0316 µM, first compound 10 µM) was 64.3%. It also gave a viability, T/C (second compound 0.1 µM, first compound 0.0316 µM) of 51.5%, a viability, T/C (second compound 0.1 µM, first compound 0.1 µM) of 46.6% and a viability, T/C (second compound 0.1 µM, first compound 0.316 µM) of 49.7%. It also gave a viability, T/C (second compound 0.1 µM, first compound 1 µM) of 58.5%, a viability, T/C (second compound 0.1 µM, first compound 3.16 µM) of 49.8% and a viability, T/C (second compound 0.1 µM, first compound 10 µM) of 43.5%. It also gave a viability, T/C (second compound 0.316 µM, first compound 0.0316 µM) of 24.3%, a viability, T/C (second compound 0.316 µM, first compound 0.1 µM) of 22.4% and a viability, T/C (second compound 0.316 µM, first compound 0.316 µM) of 20%. For the same molecule, the viability, T/C (second compound 0.316 µM, first compound 1 µM) was 18%, the viability, T/C (second compound 0.316 µM, first compound 3.16 µM) was 21.4% and the viability, T/C (second compound 0.316 µM, first compound 10 µM) was 17.5%. It also gave a viability, T/C (second compound 1 µM, first compound 0.0316 µM) of 2.03%, a viability, T/C (second compound 1 µM, first compound 0.1 µM) of 1.38% and a viability, T/C (second compound 1 µM, first compound 0.316 µM) of 1.73%. It also gave a viability, T/C (second compound 1 µM, first compound 1 µM) of 1.56%, a viability, T/C (second compound 1 µM, first compound 3.16 µM) of 1.8% and a viability, T/C (second compound 1 µM, first compound 10 µM) of 2%. The viability, T/C (second compound 3.16 µM, first compound 0.0316 µM) was 0.89%, the viability, T/C (second compound 3.16 µM, first compound 0.1 µM) was 1.08% and the viability, T/C (second compound 3.16 µM, first compound 0.316 µM) was 0.76%. It also gave a viability, T/C (second compound 3.16 µM, first compound 1 µM) of 1.05%, a viability, T/C (second compound 3.16 µM, first compound 3.16 µM) of 0.74% and a viability, T/C (second compound 3.16 µM, first compound 10 µM) of 0.87%. The viability, T/C (second compound 10 µM, first compound 0.0316 µM) was 0.16%, the viability, T/C (second compound 10 µM, first compound 0.1 µM) was 0.22% and the viability, T/C (second compound 10 µM, first compound 0.316 µM) was 0.23%. For the same molecule, the viability, T/C (second compound 10 µM, first compound 1 µM) was 0.22%, the viability, T/C (second compound 10 µM, first compound 3.16 µM) was 0.3% and the viability, T/C (second compound 10 µM, first compound 10 µM) was 0.31%.
